For 44 compounds, logP and chromatographic logP results are on record in patent publication US20220144815A1, “1,3,4-OXADIAZOLES AND THEIR DERIVATIVES AS NEW ANTIFUNGAL AGENTS” (Bayer Aktiengesellschaft, priority 2018, published 2022).

By logP is commonly meant the decadic logarithm of the partition coefficient of the neutral form, usually between octanol and water. A lower logP goes with a more hydrophilic compound.

A short description of one data set: Log P by HPLC on reversed phase columns, method [a] (EEC directive 79/831 Annex V.A8). The conditions noted are these: log P determined according to method [a] (HPLC on reversed phase columns). It counts as physicochemical. Here is the method: Measurement of Log P values as provided herein was performed according to EEC directive 79/831 Annex V.A8 by HPLC (High Performance Liquid Chromatography) on reversed phase columns with the following methods: • ^[a] Log P value is determined by measurement of LC-UV, in an acidic range, with 0.1% formic acid in water and acetonitrile as eluent (linear gradient from 10% acetonitrile to 95% acetonitrile). • ^[b] Log P value is determined by measurement of LC-UV, in a neutral range, with 0.001 molar ammonium acetate solution in water and acetonitrile as eluent (linear gradient from 10% acetonitrile to 95% acetonitrile). • ^[c] Log P value is determined by measurement of LC-UV, in an acidic range, with 0.1% phosphoric acid and acetonitrile as eluent (linear gradient from 10% acetonitrile to 95% acetonitrile). If more than one Log P value is available within the same method, all the values are given and separated by “+”. Calibration was done with straight-chain alkan2-ones (with 3 to 16 carbon atoms) with known Log P values (measurement of Log P values using retention times with linear interpolation between successive alkanones). Lambda-max-values were determined using UV-spectra from 200 nm to 400 nm and the peak values of the chromatographic signals In table 1, the log P values were determined according to method [^a]. In table 2, the log P values were determined according to method [^a].
For `CC1(C2(Nc3ncc(-c4nnc(C(F)F)o4)cn3)CC2)CC1` [Example I-097], the logP is recorded as 2.89.
The same measure, in the same setting: then `O=C(Nc1ccc(F)cc1F)c1ccc(-c2nnc(C(F)(F)F)s2)cc1` [Example I-029], with 3.29; and `Cc1ccccc1Nc1ncc(-c2nnc(C(F)F)o2)cn1` [Example I-086], with 2.51.
The same measure, in the same setting: then `CCn1nccc1-c1ncc(-c2nnc(C(F)F)o2)cn1` [Example I-078], with 2.18; and `O=C(Cc1ccccc1)Nc1ccc(-c2nnc(C(F)F)o2)cn1` [Example I-050], with 2.54.
Same read-out and setting: in the case of `CC(C)(C)OC(=O)N1CCN(c2ccc(-c3nnc(C(F)F)o3)cn2)CC1` [Example I-058] it was 3.25.
`COC(=O)c1ccc(-c2nnc(C(F)(F)F)s2)cc1` [Example I-011] returned a logP of 3.23.
Still for that read-out and setting: then `CC1(NC(=O)c2ccc(-c3nnc(C(F)F)o3)cn2)CC1` [Example I-044], with 2.02; and `COc1ccc(-c2ncc(-c3nnc(C(F)F)o3)cn2)cc1` [Example I-089], with 3.01; and `FC(F)c1nnc(-c2ccc(Oc3ccccc3)nc2)o1` [Example I-043], with 2.90.
Still for that read-out and setting: then `CN(C)c1ncc(-c2nnc(C(F)F)o2)cn1` [Example I-062], with 1.87; and `FC(F)c1nnc(-c2cnc(NC3(C4CC4)CC3)nc2)o1` [Example I-082], with 2.33.
As for `CCc1noc(-c2ccc(-c3nnc(C(F)(F)F)o3)cc2)n1` [Example I-018], the logP came to 3.59.
On the same count and under the same terms, in the case of `CCc1noc(-c2ccc(-c3nnc(C(F)F)o3)cc2)n1` [Example I-015] it was 2.94; in that of `Fc1ccc(Oc2ncc(-c3nnc(C(F)F)o3)cn2)cc1` [Example I-098], 2.51; in that of `O=C(Nc1ccc(F)cc1F)c1ccc(-c2nnc(C(F)F)o2)cc1` [Example I-027], 2.57.
In the case of `O=C(O)c1ccc(-c2nnc(C(F)(F)F)o2)cc1` [Example I-004], the logP is 2.20.
Same read-out and setting: in the case of `O=C(O)c1ccc(-c2nnc(C(F)F)o2)cc1` [Example I-001] it was 1.66; in that of `FC(F)c1nnc(-c2ccc(-n3ccnn3)cc2)o1` [Example I-005], 1.73; in that of `FC(F)c1nnc(-c2cnc(N3CCOCC3)nc2)o1` [Example I-074], 1.87.

The same data set, now with this note: reversed phase HPLC column; Method A: LC-UV, acidic range, 0.1% formic acid in water and acetonitrile; read-out: Log P.
In the case of `O=C(NNC(=O)C(F)F)c1cnc(NC2(c3ccccc3)CCC2)nc1` [N′-(difluoroacetyl)-2-[(1-phenylcyclobutyl)amino]pyrimidine-5-carbohydrazide], the chromatographic logP was determined as 1.99.
As for `CCc1noc(-c2ccc(C(=O)NNC(=O)C(F)(F)F)cc2)n1` [IIa.14, 4-(3-ethyl-1,2,4-oxadiazol-5-yl)-N′-(trifluoroacetyl)benzohydrazide], the chromatographic logP worked out at 1.93.

The data set is the same for the next values; noted with them: reversed phase HPLC column; log P determined according to method [a] (HPLC on reversed phase columns); read-out: logP.
As for `CC(Nc1ncc(-c2nnc(C(F)F)o2)cn1)c1ccccc1F` (racemic) [I.124, 5-[5-(difluoromethyl)-1,3,4-oxadiazol-2-yl]-N-[(1RS)-1-(2-fluorophenyl)ethyl]pyrimidin-2-amine], the chromatographic logP worked out at 2.89.
On to `C[C@H](Nc1ncc(-c2nnc(C(F)F)o2)cn1)c1ccc(F)cc1` [I.125b, 5-[5-(difluoromethyl)-1,3,4-oxadiazol-2-yl]-N-[(1S)-1-(4-fluorophenyl)ethyl]pyrimidin-2-amine], for which the chromatographic logP came out at 2.85.
As for `CCON(Cc1ccccc1)c1ncc(-c2nnc(C(F)F)o2)cn1` [I.148, N-benzyl-N-{5-[5-(difluoromethyl)-1,3,4-oxadiazol-2-yl]pyrimidin-2-yl}-O-ethylhydroxylamine], the chromatographic logP came to 3.28.
Still for that read-out and setting: then `COc1ccccc1Nc1ncc(-c2nnc(C(F)F)o2)cn1` [I.109, 5-[5-(difluoromethyl)-1,3,4-oxadiazol-2-yl]-N-(2-methoxyphenyl)pyrimidin-2-amine], with 2.8; and `CC(Nc1ncc(-c2nnc(C(F)F)o2)cn1)c1c(F)cccc1F` (racemic) [I.151, 5-[5-(difluoromethyl)-1,3,4-oxadiazol-2-yl]-N-[(1RS)-1-(2,6-difluorophenyl)ethyl]pyrimidin-2-amine], with 3.1.
Still for that read-out and setting: in the case of `CCOC(=O)C1(Nc2ncc(-c3nnc(C(F)F)o3)cn2)CC1` [I.117, ethyl 1-({5-[5-(difluoromethyl)-1,3,4-oxadiazol-2-yl]pyrimidin-2-yl}amino)cyclopropanecarboxylate] it was 1.94.

The data set is the same for the next values; noted with them: reversed phase HPLC column; method [a], HPLC on reversed phase columns; read-out: logP.
Turning to `CC(C)C1(Nc2ncc(-c3nnc(C(F)F)o3)cn2)CC1` [I.187, 5-[5-(difluoromethyl)-1,3,4-oxadiazol-2-yl]-N-(1-isopropylcyclopropyl)pyrimidin-2-amine], the chromatographic logP turned out to be 2.65.
On the same count and under the same terms, in the case of `FC(F)Oc1ccccc1C1(Nc2ncc(-c3nnc(C(F)F)o3)cn2)CC1` [I.248, N-{1-[2-(difluoromethoxy)phenyl]cyclopropyl}-5-[5-(difluoromethyl)-1,3,4-oxadiazol-2-yl]pyrimidin-2-amine] it was 3.21; in that of `FC(F)c1nnc(-c2cnc(NC3(c4ccc(Cl)cc4Cl)CC3)nc2)o1` [I.255, N-[1-(2,4-dichlorophenyl)cyclopropyl]-5-[5-(difluoromethyl)-1,3,4-oxadiazol-2-yl]pyrimidin-2-amine], 4.05; in that of `CC(Nc1ncc(-c2nnc(C(F)F)o2)cn1)c1ccc2ccccc2c1` (racemic) [I.232, 5-[5-(difluoromethyl)-1,3,4-oxadiazol-2-yl]-N-[(1RS)-1-(2-naphthyl)ethyl]pyrimidin-2-amine], 3.45.
Same read-out and setting: then `FC(F)c1nnc(-c2cnc(NC3(c4cc(Cl)ccn4)CC3)nc2)o1` [I.228, N-[1-(4-chloropyridin-2-yl)cyclopropyl]-5-[5-(difluoromethyl)-1,3,4-oxadiazol-2-yl]pyrimidin-2-amine], with 2.31; and `FC(F)Oc1ccc(C2(Nc3ncc(-c4nnc(C(F)F)o4)cn3)CC2)cc1` [I.247, N-{1-[4-(difluoromethoxy)phenyl]cyclopropyl}-5-[5-(difluoromethyl)-1,3,4-oxadiazol-2-yl]pyrimidin-2-amine], with 2.91; and `CC(C)(Nc1ncc(-c2nnc(C(F)F)o2)cn1)c1ccc(Cl)cc1` [I.231, N-[2-(4-chlorophenyl)propan-2-yl]-5-[5-(difluoromethyl)-1,3,4-oxadiazol-2-yl]pyrimidin-2-amine], with 3.55.
Same read-out and setting: in the case of `COc1cccc(C2(Nc3ncc(-c4nnc(C(F)F)o4)cn3)CC2)c1F` [I.236, 5-[5-(difluoromethyl)-1,3,4-oxadiazol-2-yl]-N-[1-(2-fluoro-3-methoxyphenyl)cyclopropyl]pyrimidin-2-amine] it was 2.81.
Turning to `CON(c1ncc(-c2nnc(C(F)F)o2)cn1)C(C)c1cccc(C(F)(F)F)c1` (racemic) [I.184, N-{5-[5-(difluoromethyl)-1,3,4-oxadiazol-2-yl]pyrimidin-2-yl}-O-methyl-N-{(1RS)-1-[3-(trifluoromethyl)phenyl]ethyl}hydroxylamine], the chromatographic logP worked out at 3.94.
Still for that read-out and setting: in the case of `FC(F)c1nnc(-c2cnc(NC3(c4ccc(Cl)cc4)CCC3)nc2)o1` [I.237, N-[1-(4-chlorophenyl)cyclobutyl]-5-[5-(difluoromethyl)-1,3,4-oxadiazol-2-yl]pyrimidin-2-amine] it was 3.71; in that of `CC(Nc1ncc(-c2nnc(C(F)F)o2)cn1)C1(C)CC1` (racemic) [I.186, 5-[5-(difluoromethyl)-1,3,4-oxadiazol-2-yl]-N-[(1RS)-1-(1-methylcyclopropyl)ethyl]pyrimidin-2-amine], 2.91.
Still for that read-out and setting: then `CC(CNc1ncc(-c2nnc(C(F)F)o2)cn1)c1ccc(F)cc1` (racemic) [I.211, 5-[5-(difluoromethyl)-1,3,4-oxadiazol-2-yl]-N-[(2RS)-2-(4-fluorophenyl)propyl]pyrimidin-2-amine], with 3.13.
On the same count and under the same terms, then `FC(F)c1nnc(-c2cnc(NC3(c4cccc(C(F)(F)F)c4)CC3)nc2)o1` [I.249, 5-[5-(difluoromethyl)-1,3,4-oxadiazol-2-yl]-N-{1-[3-(trifluoromethyl)phenyl]cyclopropyl}pyrimidin-2-amine], with 3.24.
With `FC(F)Oc1cccc(C2(Nc3ncc(-c4nnc(C(F)F)o4)cn3)CC2)c1` [I.246, N-{1-[3-(difluoromethoxy)phenyl]cyclopropyl}-5-[5-(difluoromethyl)-1,3,4-oxadiazol-2-yl]pyrimidin-2-amine], the chromatographic logP amounted to 2.91.
Take `Fc1ccccc1C1(Nc2ncc(-c3nnc(C(F)(F)Cl)o3)cn2)CC1` [I.179, 5-{5-[chloro(difluoro)methyl]-1,3,4-oxadiazol-2-yl}-N-[1-(2-fluorophenyl)cyclopropyl]pyrimidin-2-amine]: the chromatographic logP was 3.76.
The same measure, in the same setting: then `COc1ccc(C2(Nc3ncc(-c4nnc(C(F)F)o4)cn3)CC2)cc1OC` [I.243, 5-[5-(difluoromethyl)-1,3,4-oxadiazol-2-yl]-N-[1-(3,4-dimethoxyphenyl)cyclopropyl]pyrimidin-2-amine], with 2.39.
